Tests used:
[1] = molecular target: T1, MST3 (STK24, IPI00872754) (Homo sapiens, UniProt Q9Y6E0); assay: binding to VI16742 beads (HeLa lysate, SILAC MS)
T1 construct: endogenous in cells; host or cells: HeLa S3 cell lysate

[2] = molecular target: T2, ACAD10 (Homo sapiens, UniProt Q6JQN1)
T2 sequence (Q6JQN1 1-1059): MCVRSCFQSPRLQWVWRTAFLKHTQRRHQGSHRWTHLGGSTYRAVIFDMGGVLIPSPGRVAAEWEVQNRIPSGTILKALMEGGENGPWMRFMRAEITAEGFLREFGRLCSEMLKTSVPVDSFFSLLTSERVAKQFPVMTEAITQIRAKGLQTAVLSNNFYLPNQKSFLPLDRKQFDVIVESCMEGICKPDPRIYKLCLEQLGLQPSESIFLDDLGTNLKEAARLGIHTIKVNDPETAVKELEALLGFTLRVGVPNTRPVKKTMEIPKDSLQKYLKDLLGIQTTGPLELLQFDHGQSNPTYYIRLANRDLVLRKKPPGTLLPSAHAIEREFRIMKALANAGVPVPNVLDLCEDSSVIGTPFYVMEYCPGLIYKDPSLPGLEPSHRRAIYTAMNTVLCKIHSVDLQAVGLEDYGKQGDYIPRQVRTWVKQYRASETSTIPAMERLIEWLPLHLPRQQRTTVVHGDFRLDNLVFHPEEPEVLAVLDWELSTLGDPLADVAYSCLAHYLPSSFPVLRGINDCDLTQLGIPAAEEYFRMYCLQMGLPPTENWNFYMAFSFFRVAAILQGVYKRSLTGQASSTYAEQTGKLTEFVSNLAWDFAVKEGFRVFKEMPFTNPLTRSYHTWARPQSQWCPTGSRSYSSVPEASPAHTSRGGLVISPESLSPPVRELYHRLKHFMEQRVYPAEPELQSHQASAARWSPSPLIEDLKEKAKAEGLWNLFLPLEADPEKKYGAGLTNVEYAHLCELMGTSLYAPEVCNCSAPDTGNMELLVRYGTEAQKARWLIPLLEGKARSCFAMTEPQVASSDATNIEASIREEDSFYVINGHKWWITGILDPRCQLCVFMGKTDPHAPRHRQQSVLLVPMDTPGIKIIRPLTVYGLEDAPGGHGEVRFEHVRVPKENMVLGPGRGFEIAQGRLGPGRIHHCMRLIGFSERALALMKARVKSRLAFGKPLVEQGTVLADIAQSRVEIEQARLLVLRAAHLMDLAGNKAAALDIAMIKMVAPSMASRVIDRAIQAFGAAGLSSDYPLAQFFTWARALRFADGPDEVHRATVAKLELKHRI

[3] = molecular target: T3, EphB2 (Homo sapiens, UniProt P29323)
T3 sequence (P29323 19-1055): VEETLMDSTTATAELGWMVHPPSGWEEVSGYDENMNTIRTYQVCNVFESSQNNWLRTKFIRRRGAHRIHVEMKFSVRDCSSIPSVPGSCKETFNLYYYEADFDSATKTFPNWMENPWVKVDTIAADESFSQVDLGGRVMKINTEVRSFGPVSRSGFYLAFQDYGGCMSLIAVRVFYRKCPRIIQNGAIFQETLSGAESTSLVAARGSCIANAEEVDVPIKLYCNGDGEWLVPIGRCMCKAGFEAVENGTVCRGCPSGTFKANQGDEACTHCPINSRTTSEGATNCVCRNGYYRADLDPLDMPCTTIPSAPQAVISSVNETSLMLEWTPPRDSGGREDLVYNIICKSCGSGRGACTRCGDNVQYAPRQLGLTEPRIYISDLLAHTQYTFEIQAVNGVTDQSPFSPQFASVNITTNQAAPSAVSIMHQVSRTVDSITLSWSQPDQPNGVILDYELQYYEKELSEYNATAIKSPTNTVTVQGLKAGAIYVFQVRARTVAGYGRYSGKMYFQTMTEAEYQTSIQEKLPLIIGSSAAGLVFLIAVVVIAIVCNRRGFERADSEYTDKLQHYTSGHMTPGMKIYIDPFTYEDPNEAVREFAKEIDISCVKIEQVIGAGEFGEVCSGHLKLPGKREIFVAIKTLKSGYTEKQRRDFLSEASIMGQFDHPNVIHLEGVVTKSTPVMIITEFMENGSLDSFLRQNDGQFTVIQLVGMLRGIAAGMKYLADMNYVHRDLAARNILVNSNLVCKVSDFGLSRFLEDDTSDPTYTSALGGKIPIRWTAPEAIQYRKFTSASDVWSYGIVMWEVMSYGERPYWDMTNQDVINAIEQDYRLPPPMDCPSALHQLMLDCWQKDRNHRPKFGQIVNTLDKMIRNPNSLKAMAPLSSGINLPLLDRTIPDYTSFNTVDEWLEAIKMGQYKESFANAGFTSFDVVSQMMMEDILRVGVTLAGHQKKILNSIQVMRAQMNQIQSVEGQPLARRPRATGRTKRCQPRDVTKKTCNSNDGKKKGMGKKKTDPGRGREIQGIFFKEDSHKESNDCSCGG

T1 sequence (Q9Y6E0 whole entry): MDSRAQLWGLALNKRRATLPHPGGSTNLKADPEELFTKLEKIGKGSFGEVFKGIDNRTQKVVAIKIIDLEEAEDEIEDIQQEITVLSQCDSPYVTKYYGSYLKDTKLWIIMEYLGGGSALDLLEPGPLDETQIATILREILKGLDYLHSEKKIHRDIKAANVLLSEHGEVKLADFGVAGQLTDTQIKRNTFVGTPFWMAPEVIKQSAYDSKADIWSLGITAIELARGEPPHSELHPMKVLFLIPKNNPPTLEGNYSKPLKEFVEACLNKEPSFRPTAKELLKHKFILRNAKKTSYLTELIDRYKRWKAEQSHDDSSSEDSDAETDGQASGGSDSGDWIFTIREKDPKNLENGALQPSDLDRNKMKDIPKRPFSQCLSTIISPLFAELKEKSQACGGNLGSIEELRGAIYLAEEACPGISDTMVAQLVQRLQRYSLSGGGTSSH

SMILES | r (5 h/2.5 h INC. TIME) ([1]; 5 h vs 2.5 h incubation time) | rAVERAGE (CTRL/1 INC) ([1]; control beads vs first incubation) | Ki ([1]; immobilized VI16742) | rAVERAGE (2 INC/1 INC) ([1]; second vs first incubation) | rAVERAGE (10 nM/0 nM Gef.) [2] | rAVERAGE (100 nM/0 nM Gef.) [2] | rAVERAGE (1000 nM/0 nM Gef.) [2] | rAVERAGE (10000 nM/0 nM Gef.) [2] | rAVERAGE (10 nM/0 nM Gef.) [3] | rAVERAGE (100 nM/0 nM Gef.) [3] | rAVERAGE (1000 nM/0 nM Gef.) [3] | rAVERAGE (10000 nM/0 nM Gef.) [3]
CC(C)n1c(=O)ccc2cnc(Nc3ccc(OCCN)cc3)nc21 [V16742] | 1.41 | 0.06 | 89.8 µM | 0.63 |  |  |  |  |  |  |  | 
COc1cc2ncnc(Nc3ccc(F)c(Cl)c3)c2cc1OCCCN1CCOCC1 [gefitinib] |  |  |  |  | 1.17 | 0.86 | 1.07 | 0.24 | 0.88 | 0.90 | 0.85 | 0.33

From patent US8959984B2, “Proteome-wide quantification of small molecule binding to cellular target proteins” (priority 2007, dated 2015)
